Data from patent US20020122795A1, “Compositions containing gangliosides for use in the treatment of skin disorders” (priority 2000, published 2002).

What was measured:
adhesion to vitronectin = experiment: Adhesion to vitronectin; format: cell-based
Source text: (§1) The ganglioside specifically interacts through carbohydrate moieties, with preference for the a5 subunit of the a5b1. […] Although any interaction between ganglioside and integrin b1 is much weaker, GT1b is able to bind b1 and, by doing so, inhibits b1 phosphorylation and serine/threonine phosphorylation.

Integrin avb3 = Integrin avb3 (Homo sapiens, UniProt P05106+P06756); experiment: Binding of ganglioside to integrin avb3
Chain of Integrin avb3 (P06756 31-889 limits assumed): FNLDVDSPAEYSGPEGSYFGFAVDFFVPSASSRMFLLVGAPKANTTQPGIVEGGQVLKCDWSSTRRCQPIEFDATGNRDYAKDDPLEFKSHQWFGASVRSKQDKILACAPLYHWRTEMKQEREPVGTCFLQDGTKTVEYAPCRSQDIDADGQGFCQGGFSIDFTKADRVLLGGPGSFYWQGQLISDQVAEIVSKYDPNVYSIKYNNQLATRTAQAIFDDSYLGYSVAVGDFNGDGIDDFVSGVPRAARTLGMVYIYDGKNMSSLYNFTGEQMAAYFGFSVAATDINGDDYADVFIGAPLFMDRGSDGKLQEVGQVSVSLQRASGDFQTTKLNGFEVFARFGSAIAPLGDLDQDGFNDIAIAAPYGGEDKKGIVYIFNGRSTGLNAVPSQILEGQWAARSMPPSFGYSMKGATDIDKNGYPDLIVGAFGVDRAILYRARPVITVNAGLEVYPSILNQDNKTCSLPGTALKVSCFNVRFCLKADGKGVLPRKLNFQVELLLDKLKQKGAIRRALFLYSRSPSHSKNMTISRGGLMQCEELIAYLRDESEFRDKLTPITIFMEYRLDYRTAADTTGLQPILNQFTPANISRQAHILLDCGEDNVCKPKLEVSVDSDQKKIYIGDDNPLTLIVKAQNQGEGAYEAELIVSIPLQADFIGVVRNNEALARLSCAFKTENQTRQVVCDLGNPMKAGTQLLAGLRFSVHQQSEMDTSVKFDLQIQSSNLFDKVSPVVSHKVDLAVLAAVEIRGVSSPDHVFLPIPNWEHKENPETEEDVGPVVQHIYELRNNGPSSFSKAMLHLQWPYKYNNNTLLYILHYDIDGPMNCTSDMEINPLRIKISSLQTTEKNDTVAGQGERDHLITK
Chain of Integrin avb3 (P06756 891-1048 limits assumed): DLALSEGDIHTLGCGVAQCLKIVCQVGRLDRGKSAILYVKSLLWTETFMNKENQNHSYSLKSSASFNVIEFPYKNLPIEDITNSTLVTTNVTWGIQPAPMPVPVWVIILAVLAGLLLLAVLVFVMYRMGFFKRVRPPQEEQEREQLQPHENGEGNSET
Chain of Integrin avb3 (P05106 27-788): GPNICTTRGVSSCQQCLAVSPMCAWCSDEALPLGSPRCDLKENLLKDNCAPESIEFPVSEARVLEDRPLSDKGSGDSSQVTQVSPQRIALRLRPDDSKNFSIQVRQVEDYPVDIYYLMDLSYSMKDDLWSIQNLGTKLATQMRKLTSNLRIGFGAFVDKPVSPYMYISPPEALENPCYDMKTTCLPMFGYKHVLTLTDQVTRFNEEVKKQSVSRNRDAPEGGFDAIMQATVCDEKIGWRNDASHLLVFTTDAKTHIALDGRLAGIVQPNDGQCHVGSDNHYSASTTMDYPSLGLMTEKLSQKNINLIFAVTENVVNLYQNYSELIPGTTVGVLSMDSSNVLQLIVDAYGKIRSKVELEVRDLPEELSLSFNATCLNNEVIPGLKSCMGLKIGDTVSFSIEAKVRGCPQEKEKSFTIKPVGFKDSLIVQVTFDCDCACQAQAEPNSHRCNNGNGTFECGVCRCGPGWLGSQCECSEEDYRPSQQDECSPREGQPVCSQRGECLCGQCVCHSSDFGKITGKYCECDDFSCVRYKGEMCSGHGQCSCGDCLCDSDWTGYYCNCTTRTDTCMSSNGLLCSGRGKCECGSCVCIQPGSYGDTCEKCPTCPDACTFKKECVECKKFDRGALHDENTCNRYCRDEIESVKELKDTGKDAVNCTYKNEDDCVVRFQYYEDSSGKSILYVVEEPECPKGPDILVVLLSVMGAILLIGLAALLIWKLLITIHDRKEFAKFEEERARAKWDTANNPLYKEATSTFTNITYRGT

keratinocyte a5b1 = biological target: T1, keratinocyte a5b1 (Homo sapiens, UniProt P05556+P08648); experiment: Direct interaction of ganglioside with keratinocyte a5b1; format: binding; settings: through carbohydrate moieties
T1 construct: endogenous in cells; host or cells: keratinocytes
T1 sequence (P08648 42-894 limits assumed): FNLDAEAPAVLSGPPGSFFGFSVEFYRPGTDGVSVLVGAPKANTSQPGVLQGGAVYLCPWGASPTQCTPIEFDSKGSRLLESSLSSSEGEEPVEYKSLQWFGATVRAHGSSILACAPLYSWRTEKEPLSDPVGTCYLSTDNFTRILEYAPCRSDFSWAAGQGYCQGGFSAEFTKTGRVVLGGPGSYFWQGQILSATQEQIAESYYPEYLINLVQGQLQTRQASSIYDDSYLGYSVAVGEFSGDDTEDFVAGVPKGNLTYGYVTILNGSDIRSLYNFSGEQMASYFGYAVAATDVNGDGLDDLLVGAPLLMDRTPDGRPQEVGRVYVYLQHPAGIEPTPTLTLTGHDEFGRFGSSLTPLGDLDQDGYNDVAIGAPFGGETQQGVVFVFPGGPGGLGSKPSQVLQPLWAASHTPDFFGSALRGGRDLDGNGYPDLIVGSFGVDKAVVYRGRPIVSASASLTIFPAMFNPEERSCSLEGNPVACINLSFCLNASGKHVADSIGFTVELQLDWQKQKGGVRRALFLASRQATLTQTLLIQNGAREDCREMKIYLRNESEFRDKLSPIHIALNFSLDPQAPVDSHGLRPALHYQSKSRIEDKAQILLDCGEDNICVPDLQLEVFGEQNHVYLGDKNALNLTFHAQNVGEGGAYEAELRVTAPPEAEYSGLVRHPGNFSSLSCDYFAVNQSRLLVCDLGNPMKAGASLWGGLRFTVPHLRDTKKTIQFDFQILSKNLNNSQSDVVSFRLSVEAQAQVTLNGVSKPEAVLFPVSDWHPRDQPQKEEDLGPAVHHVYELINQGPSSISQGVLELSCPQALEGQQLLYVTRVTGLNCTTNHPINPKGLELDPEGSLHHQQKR
T1 sequence (P08648 895-1049 limits assumed): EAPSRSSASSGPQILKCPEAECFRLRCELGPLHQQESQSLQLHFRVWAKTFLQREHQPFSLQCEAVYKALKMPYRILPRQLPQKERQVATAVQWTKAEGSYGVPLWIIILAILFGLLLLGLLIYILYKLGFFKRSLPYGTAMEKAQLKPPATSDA
T1 sequence (P05556 21-798): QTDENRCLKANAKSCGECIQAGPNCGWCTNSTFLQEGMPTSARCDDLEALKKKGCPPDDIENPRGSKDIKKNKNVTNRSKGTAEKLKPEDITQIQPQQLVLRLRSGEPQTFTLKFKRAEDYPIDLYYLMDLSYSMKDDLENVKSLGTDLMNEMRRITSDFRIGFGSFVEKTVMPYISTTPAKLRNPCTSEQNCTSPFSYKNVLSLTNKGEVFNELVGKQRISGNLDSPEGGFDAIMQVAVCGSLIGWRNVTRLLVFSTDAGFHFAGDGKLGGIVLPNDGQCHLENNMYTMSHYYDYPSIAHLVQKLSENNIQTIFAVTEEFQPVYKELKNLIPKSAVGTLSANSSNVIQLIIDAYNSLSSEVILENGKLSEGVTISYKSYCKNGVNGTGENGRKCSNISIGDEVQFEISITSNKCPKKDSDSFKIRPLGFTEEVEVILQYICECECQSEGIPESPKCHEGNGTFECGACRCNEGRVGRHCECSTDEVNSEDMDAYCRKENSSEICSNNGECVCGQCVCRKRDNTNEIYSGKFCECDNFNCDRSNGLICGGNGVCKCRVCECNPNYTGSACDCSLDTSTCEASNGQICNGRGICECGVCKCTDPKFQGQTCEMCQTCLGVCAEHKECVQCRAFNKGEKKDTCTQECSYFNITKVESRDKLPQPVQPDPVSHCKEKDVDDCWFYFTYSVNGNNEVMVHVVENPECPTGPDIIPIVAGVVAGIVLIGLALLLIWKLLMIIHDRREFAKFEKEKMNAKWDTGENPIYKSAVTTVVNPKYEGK
Source text: as §1

[1] = test system: keratinocytes and keratinocyte-derived cells; experiment: Migration of keratinocytes and keratinocyte-derived cells on fibronectin; format: cell-based; settings: fibronectin substrate
Source text: (§2) Keratinocyte motility on a fibronectin substrate is critical in the reepithelialization of healing wounds, and in the spread of cutaneous malignancy. We discovered that gangliosides GT1b and GD3 inhibit the adhesion to and migration of keratinocytes and keratinocyte-derived cells on fibronectin (See, Paller, A. S., et al., J. Invest. Dermatol., 105:237-242 (1995); Sung, C-C., et al., Exp. Cell Res., 239:311-319 (1998); Wang, X-Q, et al., J. Biol. Chem., 276(48):44504-44511 (2001) each incorporated by reference). Conversely, endogenous depletion of gangliosides through sialidase gene modulation leads to increased adhesion of the cells to fibronectin and vitronection. Gangliosides also trigger the apoptosis of keratinocytes when plated on a fibronectin matrix.

FAK = experiment: Phosphorylation of FAK; format: cell-based
Source text: as §1

integrin-linked kinase = experiment: Phosphorylation of integrin-linked kinase; format: cell-based
Source text: as §1

[2] = test system: keratinocytes and keratinocyte-derived cells; experiment: Adhesion of keratinocytes and keratinocyte-derived cells to fibronectin; format: cell-based; settings: fibronectin substrate
Source text: as §2

MMP-2 = MMP-2 expression and activity in keratinocyte-derived SCC12 cells; format: cell-based
Description: (§3) In contrast, inhibitors of protein kinase C (PKC) decrease the expression of TIMP-1 in SCC12 cells without altering MMP-9 expression. […] When both activators of PKC and gangliosides GT1b or GD3 are incubated together with the SCC12 cells, no change in the expression or activity of MMP-2 is noted. These studies provide evidence that more highly sialylated gangliosides modulate MMP-2 expression and activity in keratinocytes through a mechanism that involves suppression of the PKC signaling pathway.

skin cells = experiment: Proliferation of skin cells; format: cell-based
Source text: One manifestation of basal cell and squamous cell cancers of the skin, psoriasis, and genetic disorders of skin overgrowth, such as certain forms of ichthyosis, is excessive proliferation of skin. In our experiments, we have noted that alterations in ganglioside content, whether by pharmacologic manipulation or endogenous alteration through gene therapy, also affect the growth of skin cells. […] We have now determined that a decrease in the same gangliosides would increase the proliferation of skin cells; in fact, we have determined that transfection of a sialidase gene that cleaves the sialic acid group(s) from all gangliosides results in total ganglioside depletion, and leads to increased proliferation of skin cells. […] We believe that a number of other gangliosides have similar effects, as described below, and could be used in therapeutic treatments.

[3] = biological target: T2, epidermal growth factor receptor (Homo sapiens, UniProt P00533); experiment: Direct binding of ganglioside to the epidermal growth factor receptor in keratinocytes
T2 construct: epidermal growth factor receptor in keratinocytes; endogenous in cells; host or cells: keratinocytes
Source text: (§4) The mechanism for the overgrowth of skin cells depleted of gangliosides and for the inhibition of growth of skin cells with increased ganglioside GM3 is decreased availability of the epidermal growth factor receptor for binding to its ligands (epidermal growth factor and transforming growth factor-α). […] Also affected are downstream components in the epidermal growth factor signaling transduction pathway, e.g. GM3 downregulates the phosphorylation of MAP kinase and PI3 kinase.

PI3 kinase = experiment: Phosphorylation of PI3 kinase (EGF signalling pathway); format: cell-based
Source text: as §4

TIMP-1 = TIMP-1 expression in keratinocyte-derived cells; format: cell-based
Description: as §3

MAP kinase = experiment: Phosphorylation of MAP kinase (EGF signalling pathway); format: cell-based
Source text: as §4

MMP-9 = MMP-9 expression and activity in keratinocyte-derived cells; format: cell-based
Description: as §3

integrin b1 [4] = biological target: T3, integrin b1 (Homo sapiens, UniProt P05556); experiment: Binding of ganglioside to integrin b1
T3 sequence (P05556 21-798): as above
T3 sequence (P08648 42-894 partner limits assumed): as the sequence (P08648 42-894 limits assumed) above
T3 sequence (P08648 895-1049 partner limits assumed): as the sequence (P08648 895-1049 limits assumed) above
Source text: as §1

integrin b1 [5] = biological target: T3, integrin b1; experiment: Phosphorylation of integrin b1; format: cell-based
Source text: as §1

[6] = test system: explant cultures from patients with psoriasis; experiment: Attachment of explant cultures from patients with psoriasis; format: cell-based
Source text: The interaction of a5b1 and fibronectin is considered critical for embryonic development of skin, healing of wounds and spread of cutaneous malignancies. In addition, it is known in the art that cells from patients with psoriasis have shown increased adherence to fibronectin and a decreased ability to undergo apoptosis. […] Integrin avb3 plays a vital role in the development and proliferation of blood vessels in skin; increased activity leads to neovascularization, while inhibition can inhibit new vessel formation. Thus, an increase in more complex skin gangliosides, particularly GT1b, may be novel agents for treating psoriasis or in inhibiting vascular-dependent processes, such as the rapid growth of hemangiomas in infants. In contrast, depletion of gangliosides (e.g., through increased local sialidase activity) may encourage wound healing, through increasing the migration of keratinocytes, increasing keratinocyte proliferation, and encouraging angiogenesis. Thus, the invention includes administering gangliosides including but not limited to GT1b and GD3, and other agents that affect the amount and action of these gangliosides, to control fibronectin interactions.

TIMP-2 = TIMP-2 expression in keratinocyte-derived SCC12 cells; format: cell-based
Description: as §3

[7] = ganglioside incubated together with activators of PKC, SCC12 cells
[8] = keratinocyte-derived SCC12 cells
[9] = pharmacologic addition to normal keratinocyte-derived cells

Substance: GD2
- adhesion to vitronectin (adhesion to vitronectin): limit the adhesion
- binding to integrin avb3 (Integrin avb3): binds

Substance: GD3
- adhesion to vitronectin (adhesion to vitronectin): limit the adhesion
- interaction with keratinocyte a5b1 (keratinocyte a5b1): direct interaction
- migration of keratinocytes and keratinocyte-derived cells on fibronectin [1]: inhibit
- phosphorylation of FAK (FAK): inhibition of phosphorylation
- phosphorylation of integrin-linked kinase (integrin-linked kinase): inhibition of phosphorylation
- adhesion of keratinocytes and keratinocyte-derived cells to fibronectin [2]: inhibit
- activity of MMP-2 (MMP-2; [7]): no change
- expression of MMP-2 (MMP-2; [7]): no change
- activity of MMP-2 (MMP-2; [8]): inhibit
- expression of MMP-2 (MMP-2; [8]): inhibit
- binding to integrin avb3 (Integrin avb3): binds

Substance: GM3
- proliferation of skin cells (skin cells; pharmacologic addition of ganglioside): inhibit the proliferation
- binding to the carbohydrate moieties of the epidermal growth factor receptor [3]: direct binding
- phosphorylation of PI3 kinase (PI3 kinase): downregulates
- expression of TIMP-1 (TIMP-1; [9]): marked suppression
- phosphorylation of MAP kinase (MAP kinase): downregulates
- activity of MMP-9 (MMP-9; [9]): without affecting
- expression of MMP-9 (MMP-9; [9]): marked suppression

Substance: GT1b
- binding to integrin b1 (integrin b1 [4]): able to bind
- b1 phosphorylation (integrin b1 [5]): inhibits
- serine/threonine phosphorylation (integrin b1 [5]; on binding of b1): inhibits
- interaction with keratinocyte a5b1 (keratinocyte a5b1): direct interaction
- expression of TIMP-1 (TIMP-1; [9]): marked suppression
- migration of keratinocytes and keratinocyte-derived cells on fibronectin [1]: inhibit
- phosphorylation of FAK (FAK): inhibition of phosphorylation
- phosphorylation of integrin-linked kinase (integrin-linked kinase): inhibition of phosphorylation
- attachment of explant cultures [6]: clear inhibition of attachment
- adhesion of keratinocytes and keratinocyte-derived cells to fibronectin [2]: inhibit
- activity of MMP-2 (MMP-2; [7]): no change
- expression of MMP-2 (MMP-2; [7]): no change
- activity of MMP-2 (MMP-2; [8]): inhibit
- expression of MMP-2 (MMP-2; [8]): inhibit
- activity of MMP-9 (MMP-9; [9]): without affecting
- expression of MMP-9 (MMP-9; [9]): marked suppression

Substance: PIP3 [reference compound]
- TIMP-2 expression (TIMP-2): only slightly increase
- activity of MMP-2 (MMP-2; [8]): increased
- expression of MMP-2 (MMP-2; [8]): increased

Substance: concanavalin A [reference compound]
- TIMP-2 expression (TIMP-2): only slightly increase
- activity of MMP-2 (MMP-2; [8]): increased
- expression of MMP-2 (MMP-2; [8]): increased

Substance: epidermal growth factor [reference compound]
- proliferation of skin cells (skin cells; added to sialidase-transfected (ganglioside-depleted) cells in culture): further accentuated
- expression of TIMP-1 (TIMP-1; SCC12 cells): does not affect
- activity of MMP-9 (MMP-9; SCC12 cells): increases its activity
- expression of MMP-9 (MMP-9; SCC12 cells): further increased
